Assay results reported in article PMC12517324, “Hyperagonism of a Vitamin D Receptor Agonist/Histone Deacetylase Inhibitor Hybrid Molecule” (Journal of Medicinal Chemistry, 2025).

Legend:
[1] = system: CYP24A1 in SK-MEL-28 cells; experiment: CYP24A1 induction (RT-qPCR), extended dose–response in SK-MEL-28 cells; conditions: SK-MEL-28 cells, 1,25D up to 1 mM
B16–F10 cells = experiment: RNaseq gene expression profiling; format: cell-based, mouse; conditions: 100 nM, 24 h
Experimental: AC-340 superinduced CYP24A1 expression in all cell lines tested, and ZG-126 appeared to be a hyperagonist in SK-MEL-28 cells. […] AC-340 treatment produced 3 times more differentially expressed genes (DEGs) than AM-193, with ZG-126 producing an intermediate number (Figure A). […] The varying effects of each treatment on the numbers of regulated genes and the fold changes observed are reflected in plots of log-fold changes and volcano plots (Figure S3B).
A quality control was performed before sequencing in paired-end at 50 M reads by Illumina NovaSeq 6000 S4 PE100. After sequencing, the FASTQ files were sent to us and all downstream analysis were performed on Galaxy (Galaxy (usegalaxy.org)). First, trimmomatic tool was used to remove the adapters from the reads. Then, using the alignment tool, HISAT2, the reads were mapped to the mouse genome. In the next step, the counted reads were annotated and finally the list of differentially expressed genes (DEGs) for each treatment was obtained using the preinstalled R package called Limma.

[2] = system: VDRE in the mouse Spp1 gene, B16–F10 cells; experiment: ChIP-qPCR at the Spp1 VDRE; format: cell-based
Source text: To test this, we performed ChIP assays in B16–F10 cells, analyzing ligand-induced VDR and CBP (Creb binding protein) coactivator recruitment to the well-characterized consensus vitamin D receptor element (VDRE) in the mouse Spp1 gene (Figure A), which is superinduced by AC-340 (Figures C and A). CBP was chosen because it is widely expressed, and previous studies have shown that it is recruited to Cyp24a1 VDREs. […] In contrast, AC-340 recruited almost 3-fold more CBP under the same conditions (Figure C). CBP is a component of a large coactivator assembly recruited by VDR and required for chromatin remodeling due to its H3K27 acetyltransferase activity. − Since we previously observed a substantially higher level of H3K27 acetylation in AC-340-treated B16–F10 cells (Figure C,D), we intend to assess H3K27 acetylation at the Spp1 VDRE.
Cells were then fixed by adding formaldehyde directly to the culture medium to a final concentration of 1% and incubated for 15 min at RT. To quench the fixation, glycine was added to the medium at a final concentration of 125 mM. […] Quantification of immunoprecipitated materials was performed by qPCR and the enrichment of the target gene VDRE in each condition was normalized to the percentage input.

[3] = molecular target: T1, zebrafish vitamin D receptor ligand binding domain (zVDR LBD, 156-453) (zebrafish, UniProt Q9PTN2 156-453); experiment: crystal structure; zVDR LBD (3-7 mg/mL) incubated with a 2-fold excess of ligand AC-340 and a 3-fold excess of the NCoA2 NR2 peptide; crystals at 293 K in Na2 tartrate 1.1 M, MgCl2 0.2 M, Hepes 0.1 M pH 7.5; one LBD complex per asymmetric unit; refined to 2.1 Å; conditions: both partners purified
T1 construct: Cloned into pET28b; the His tag was removed by thrombin, so residues of the vector may remain at the end; The crystal also holds the small molecule AC-340; also called zebrafish VDR; source: Escherichia coli BL21 DE3, purified (Ni Hitrap FF crude column, thrombin cleavage, size exclusion on HiLoad Superdex 75)
T1 sequence (looked up): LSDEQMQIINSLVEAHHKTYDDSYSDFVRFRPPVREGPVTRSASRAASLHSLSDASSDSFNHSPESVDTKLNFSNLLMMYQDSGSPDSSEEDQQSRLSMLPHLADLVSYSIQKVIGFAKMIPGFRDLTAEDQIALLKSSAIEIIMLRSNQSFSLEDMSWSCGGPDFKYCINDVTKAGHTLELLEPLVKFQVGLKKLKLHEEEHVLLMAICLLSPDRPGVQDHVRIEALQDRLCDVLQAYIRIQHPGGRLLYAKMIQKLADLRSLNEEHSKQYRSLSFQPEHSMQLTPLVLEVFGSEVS

## C=C1/C(=C\C=C2/CCC[C@]3(C)[C@@H]([C@H](C)CCCC(C)(C)O)CC[C@@H]23)C[C@@H](O)C[C@@H]1O [1,25D, 1α,25-dihydroxyvitamin D]
[1]
  CYP24A1 induction on extending the dose range: failed to enhance the induction of CYP24A1
B16–F10 cells
  logFC 4931406C07Rik: 0.647
  logFC Abcd2: 2.727
  logFC Ace: 2.102
  logFC Adamts14: 1.691
  logFC Adamtsl5: 0.7958
  logFC Adssl1: 0.8651
  logFC Aqp1: 3.095
  logFC Ass1: 1.083
  logFC Atoh8: 1.866
  logFC C3: 2.444
  logFC Cebpd: 0.9202
  logFC Cib2: 0.656
  logFC Crabp2: 1.516
  logFC Cyp24a1: 6.454
  logFC Dagla: 0.6621
  logFC Ddo: 1.132
  logFC Dhrs3: 1.185
  logFC Dmpk: 1.6
  logFC Efcab6: 1.404
  logFC Efhd1: 3.1104
  logFC Elfn1: 4.174
  logFC Enpp1: 1.029
  logFC Enpp3: 1.066
  logFC Fam83f: 1.009
  logFC Fam178b: 0.6417
  logFC Gadd45a: 0.6305
  logFC Gdpd5: 0.8468
  logFC Gm5424: 1.087
  logFC Grb14: 4.512
  logFC Hcn2: 2.951
  logFC Hes6: 0.8133
  logFC Hoga1: 0.7079
  logFC Hoxb9: 0.9861
  logFC Inmt: 4.174
  logFC Itgal: 2.511
  logFC Lgr6: 1.733
  logFC Lrtm2: 3.553
  logFC Mal: 1.086
  logFC Matn2: 1.519
  logFC Mmp28: 2.973
  logFC Myl9: 1.815
  logFC Neu3: 0.8227
  logFC Nptx1: 1.67
  logFC Obscn: 1.291
  logFC Pdlim2: 0.7794
  logFC Prag1: 0.7325
  logFC Prelp: 4.153
  logFC Ptges: 2.985
  logFC Rab7b: 1.864
  logFC Rac2: 2.0813
  logFC Rom1: 0.7288
  logFC Rtn2: 0.9272
  logFC Scamp1: 0.6536
  logFC Serpinb9b: 0.64
  logFC Sh3bgr: 1.253
  logFC Shpk: 0.8108
  logFC Sox8: 3.592
  logFC Spp1: 3.391
  logFC Srcin1: 2.803
  logFC Tgm2: 2.227
  logFC Tnni1: 6.667
  logFC Ttc39c: 1.046
  logFC Vdr: 3.982
  logFC Wnt10a: 1.853
[2]
  H3K27 acetylation at the Spp1 VDRE: ineffective

B1: coactivator NCoA2 NR2 peptide (human nuclear receptor coactivator 2, second NR box) (peptide)
peptide: KHKILHRLLQDSS
notes: also called NCoA2 peptide
[3]
  binding result: binds
